Measured values as given in patent US4226878A, “Imidazole derivative” (Kissei Pharmaceutical Co., Ltd., priority 1978, dated 1980).
pIC50: −log10 of the molar value. Where a name gives a salt, the structure may show the parent alone.

target: T1, thromboxane synthetase from rabbit platelet microsomes (Oryctolagus cuniculus, UniProt G1TAZ9); test: inhibition of thromboxane synthetase from rabbit platelet microsomes (conversion of prostaglandin H2 into thromboxane B2); format: biochemical; details: read-out: molar concentration producing a 50% inhibition of thromboxane synthetase
T1 construct: thromboxane synthetase from rabbit platelet microsomes; from tissue; host or cells: rabbit platelet microsomes
T1 sequence (G1TAZ9 1-530): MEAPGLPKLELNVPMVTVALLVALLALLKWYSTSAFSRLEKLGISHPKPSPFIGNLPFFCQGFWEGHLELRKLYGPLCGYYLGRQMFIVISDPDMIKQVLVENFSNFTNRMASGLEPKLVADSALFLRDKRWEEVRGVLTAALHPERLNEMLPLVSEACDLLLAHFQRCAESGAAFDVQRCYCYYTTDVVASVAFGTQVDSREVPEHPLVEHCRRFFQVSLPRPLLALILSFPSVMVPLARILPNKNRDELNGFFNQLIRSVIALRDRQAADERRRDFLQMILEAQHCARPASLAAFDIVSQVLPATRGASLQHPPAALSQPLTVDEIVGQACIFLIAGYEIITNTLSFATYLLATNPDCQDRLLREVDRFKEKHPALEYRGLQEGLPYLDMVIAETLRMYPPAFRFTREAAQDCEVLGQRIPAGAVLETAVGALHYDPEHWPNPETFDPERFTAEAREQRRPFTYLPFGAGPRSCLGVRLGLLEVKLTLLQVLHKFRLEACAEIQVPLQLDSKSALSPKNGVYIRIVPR
Text: [Nature, Vol. 261, No. 6, 17-, (1976)].
The inhibitory action of the imidazole derivatives of this invention can be confirmed by determination of thromboxane B2 produced by thromboxane synthetase from prostaglandin H2 via thromboxane A2.

With `CC(=Cc1ccc(Cn2ccnc2)cc1)C(=O)O` [P-(1-imidazolylmethyl)-α-methylcinnamic acid hydrochloric acid salt] as the compound, how does the pIC50 read?
The pIC50 was 8.40.

tested on: thromboxane synthetase; test: not given; details: literature reports; cited from earlier work

For `CCCCCCCCCCn1ccnc1` [1-decylimidazole], which “inhibitory effect on thromboxane synthetase (in words, prior art)” value (from here on “inhibitory effect … (in words, prior art)”) is on record?
The value was “strong inhibitory effect”.

For `CCCCCCCCCn1ccnc1` [1-nonylimidazole], which “inhibitory effect … (in words, prior art)” value is on record?
The value was “strong inhibitory effect”.

For `CC(C)c1ccccc1-n1ccnc1` [1-(2-isopropylphenyl)imidazole], which “inhibitory effect … (in words, prior art)” value is on record?
Its value is “strong inhibitory effect”.

With `c1ccc(Cn2ccnc2)cc1` [1-benzylimidazole] as the compound, how does the “inhibitory effect … (in words, prior art)” value read?
The value was “strong inhibitory effect”.

Which “inhibitory effect … (in words, prior art)” value does the source give for `c1c[nH]cn1` [imidazole] here?
Its value is “very weak inhibitory effect”.

Which “inhibitory effect … (in words, prior art)” value does the source give for `COC(=O)CCCCCCn1ccnc1` [1-(6-methoxycarbonylhexyl) imidazole] here?
The value was “inhibitory effect”.
